In BigSolDB 2.1:

NC(=O)c1ccccc1
solubility (mole fraction)
Conditions | 283.15 K | 288.15 K | 293.15 K | 298.15 K | 303.15 K | 308.15 K | 313.15 K | 318.15 K | 323.15 K
in ethanol | 0.041 | 0.0478 | 0.0567 | 0.0652 | 0.0761 | 0.0859 | 0.102 | 0.122 | 0.142
in ethyl acetate | 0.0217 | 0.024 | 0.0281 | 0.0325 | 0.0381 | 0.0453 | 0.0527 | 0.0618 | 0.0717
in methanol | 0.061 | 0.0692 | 0.08 | 0.088 | 0.104 | 0.123 | 0.138 | 0.162 | 0.186
in n-propanol | 0.0329 | 0.0399 | 0.0471 | 0.0552 | 0.0653 | 0.0754 | 0.0892 | 0.105 | 0.126
